From article PMC3071652 (Cell, 2011)
Each block holds one molecule with its values, some of them ahead of it.

B2: Thermotoga maritima Mre11 (residues L7M-385) (enzyme, UniProt Q9X1X0 7-385, looked up)
chain: MKILHTSDWHLGVTSWTSSRPVDRREELKKALDKVVEEAEKREVDLILLTGDLLHSRNNPSVVALHDLLDYLKRMMRTAPVVVLPGNHDWKGLKLFGNFVTSISSDITFVMSFEPVDVEAKRGQKVRILPFPYPDESEALRKNEGDFRFFLESRLNKLYEEALKKEDFAIFMGHFTVEGLAGYAGIEQGREIIINRALIPSVVDYAALGHIHSFREIQKQPLTIYPGSLIRIDFGEEADEKGAVFVELKRGEPPRYERIDASPLPLKTLYYKKIDTSALKSIRDFCRNFPGYVRVVYEEDSGILPDLMGEIDNLVKIERKSRREIEEVLRESPEEFKEELDKLDYFELFKEYLKKREENHEKLLKILDELLDEVKKSEA

How the values were obtained:
[1] = biological target: T1, TmMre11:Rad50^NBD (TmMR^NBD catalytic head) (Thermotoga maritima, UniProt Q9X1X1, DEL191-685); assay: SPR and EMSA, nucleotide-stimulated DNA binding; format: biochemical; conditions: dsDNA 50mer, hairpin DNA
[2] = biological target: TmMre11:Rad50^NBD (TmMR^NBD catalytic head) (Thermotoga maritima, UniProt Q9X1X1, DEL191-685, form not given); assay: reduced BMOE crosslinking of Mre11 dimer, SDS PAGE; format: binding; conditions: nucleotide binds Rad50; read-out at Mre11 dimer interface
[3] = biological target: T1, TmMre11:Rad50^NBD (TmMR^NBD catalytic head); assay: ATPase activity; format: biochemical
[4] = biological target: TmMre11:Rad50^NBD (TmMR^NBD catalytic head) (Thermotoga maritima, UniProt Q9X1X1, DEL191-685/D804C/H830C); assay: ATP-induced disulfide bond formation between Rad50 NBDs; format: binding; conditions: Cu2+
[5] = biological target: TmMre11:Rad50^NBD (TmMR^NBD catalytic head) (Thermotoga maritima, UniProt Q9X1X1, DEL191-685/D804C/H830C, form not given); assay: as above; format: binding; conditions: Cu2+
[6] = biological target: TmMre11:Rad50^NBD (TmMR^NBD catalytic head) (Thermotoga maritima, UniProt Q9X1X1, N64C/DEL191-685/I760C); assay: ATP-dependent BMOE crosslinking of Rad50 NBDs, SDS PAGE; format: binding
[7] = biological target: T1, TmMre11:Rad50^NBD (TmMR^NBD catalytic head); assay: SAXS, compaction of catalytic head; format: binding; conditions: 50 mM Tris pH 7.7, 100 mM NaCl, 5 mM MnCl2, 10 mM MgCl2
co-purification = biological target: the molecule itself; assay: co-purification
crystal structure = biological target: the molecule itself; assay: crystal structure
[8] = biological target: B2; assay: crystal structure

Sequence of TmMre11:Rad50^NBD (TmMR^NBD catalytic head) (Thermotoga maritima, UniProt Q9X1X1, N64C/DEL191-685/I760C) (Q9X1X1 1-190 N64C, one chain of several): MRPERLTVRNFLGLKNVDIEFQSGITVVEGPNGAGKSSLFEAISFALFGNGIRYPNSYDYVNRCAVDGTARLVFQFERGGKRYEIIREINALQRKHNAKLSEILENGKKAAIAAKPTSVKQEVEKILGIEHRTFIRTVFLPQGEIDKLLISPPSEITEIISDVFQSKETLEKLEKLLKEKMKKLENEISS
Sequence of TmMre11:Rad50^NBD (TmMR^NBD catalytic head) (Thermotoga maritima, UniProt Q9X1X1, N64C/DEL191-685/I760C) (Q9X1X1 686-852 I760C, one chain of several): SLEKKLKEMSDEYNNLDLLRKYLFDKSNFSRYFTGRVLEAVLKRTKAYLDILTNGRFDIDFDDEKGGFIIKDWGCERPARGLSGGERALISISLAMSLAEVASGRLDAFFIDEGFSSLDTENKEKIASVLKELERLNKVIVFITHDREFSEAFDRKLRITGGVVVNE
Sequence of TmMre11:Rad50^NBD (TmMR^NBD catalytic head) (Thermotoga maritima, UniProt Q9X1X1, DEL191-685/D804C/H830C) (Q9X1X1 686-852 D804C/H830C, one chain of several): as the sequence (Q9X1X1 686-852 I760C, one chain of several) above, with C75I, D119C, H145C counted along it
Sequence of TmMre11:Rad50^NBD (TmMR^NBD catalytic head) (Thermotoga maritima, UniProt Q9X1X1, DEL191-685/D804C/H830C, form not given) (Q9X1X0 7-385 L7M/F291S, form open, one chain of several, further chain): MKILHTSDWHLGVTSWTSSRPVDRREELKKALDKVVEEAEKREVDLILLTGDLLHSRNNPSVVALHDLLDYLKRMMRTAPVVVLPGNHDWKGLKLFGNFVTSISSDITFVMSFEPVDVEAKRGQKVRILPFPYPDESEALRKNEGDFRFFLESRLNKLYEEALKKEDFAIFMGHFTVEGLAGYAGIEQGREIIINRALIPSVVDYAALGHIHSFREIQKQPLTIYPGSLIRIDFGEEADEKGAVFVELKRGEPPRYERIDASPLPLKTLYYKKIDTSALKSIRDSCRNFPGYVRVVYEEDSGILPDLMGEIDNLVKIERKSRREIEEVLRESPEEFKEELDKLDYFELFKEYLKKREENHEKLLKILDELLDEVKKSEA
Sequence of TmMre11:Rad50^NBD (TmMR^NBD catalytic head) (Thermotoga maritima, UniProt Q9X1X1, DEL191-685/D804C/H830C, form not given) (Q9X1X1 686-852 D804C/H830C, form open, one chain of several): as the sequence (Q9X1X1 686-852 I760C, one chain of several) above, with C75I, D119C, H145C counted along it

Molecule: Nc1ncnc2c1ncn2[C@@H]1O[C@H](COP(=O)(O)OP(=O)(O)NP(=O)(O)O)[C@@H](O)[C@H]1O [AMPPNP]
SPR and EMSA, nucleotide-stimulated DNA binding [1]: SPR showed a strong effect of AMPPNP on dsDNA and hairpin DNA binding by TmMre11:Rad50^NBD

Molecule: Nc1ncnc2c1ncn2[C@@H]1O[C@H](COP(=O)(O)OP(=O)(O)OP(=O)(O)O)[C@@H](O)[C@H]1O [ATP]
reduced BMOE crosslinking of Mre11 dimer, SDS PAGE [2]: ATP, AMPPNP and ATPγS reduced the ability of BMOE to crosslink Mre11 S110C dimers
ATPase activity [3]: Both proteins form a stoichiometric complex with ATPase as well as DNA binding activity
ATP-induced disulfide bond formation between Rad50 NBDs [4]: ATP induced formation of a disulfide bond between D804C and H830C
ATP-induced disulfide bond formation between Rad50 NBDs [5]: we can now efficiently crosslink the NBDs by disulfide bond formation
ATP-dependent BMOE crosslinking of Rad50 NBDs, SDS PAGE [6]: crosslink the two NBDs in the presence of ATP, but not in the absence of ATP

Molecule: Nc1ncnc2c1ncn2[C@@H]1O[C@H](COP(=O)(O)OP(=O)(O)OP(O)(O)=S)[C@@H](O)[C@H]1O [ATPγS]
SAXS, compaction of catalytic head (radius of gyration) [7]: Adding ATPγS indeed resulted in a substantial decrease of the radius of gyration (Rg)

B1: Thermotoga maritima Mre11 S110C (enzyme, UniProt Q9X1X0 7-385, looked up)
chain: MKILHTSDWHLGVTSWTSSRPVDRREELKKALDKVVEEAEKREVDLILLTGDLLHSRNNPSVVALHDLLDYLKRMMRTAPVVVLPGNHDWKGLKLFGNFVTSICSDITFVMSFEPVDVEAKRGQKVRILPFPYPDESEALRKNEGDFRFFLESRLNKLYEEALKKEDFAIFMGHFTVEGLAGYAGIEQGREIIINRALIPSVVDYAALGHIHSFREIQKQPLTIYPGSLIRIDFGEEADEKGAVFVELKRGEPPRYERIDASPLPLKTLYYKKIDTSALKSIRDFCRNFPGYVRVVYEEDSGILPDLMGEIDNLVKIERKSRREIEEVLRESPEEFKEELDKLDYFELFKEYLKKREENHEKLLKILDELLDEVKKSEA
binding result (co-purification): binds

Molecule: B2
stoichiometry N (crystal structure): 2

binding result [8]: binds
B3: Thermotoga maritima Rad50^NBD (residues 1-190 and 686-852 joined by the linker GGAGGAGG) (domain or fragment)
chain: MRPERLTVRNFLGLKNVDIEFQSGITVVEGPNGAGKSSLFEAISFALFGNGIRYPNSYDYVNRNAVDGTARLVFQFERGGKRYEIIREINALQRKHNAKLSEILENGKKAAIAAKPTSVKQEVEKILGIEHRTFIRTVFLPQGEIDKLLISPPSEITEIISDVFQSKETLEKLEKLLKEKMKKLENEISSGGAGGAGGSLEKKLKEMSDEYNNLDLLRKYLFDKSNFSRYFTGRVLEAVLKRTKAYLDILTNGRFDIDFDDEKGGFIIKDWGIERPARGLSGGERALISISLAMSLAEVASGRLDAFFIDEGFSSLDTENKEKIASVLKELERLNKVIVFITHDREFSEAFDRKLRITGGVVVNE
